Data from patent US20230082430A1 (C4 Therapeutics, Inc., priority 2019, published 2023).
pIC50: −log10 of the molar value.

Test system: NCIH929.1 cells
Assay: Cell viability assay for Table 2 (CellTiter-Glo 2.0, ATP quantification, 96 hr)
Type: cell-based
Settings: 96 h
Text: Cell Viability Assay for Table 2
CellTiter-Glo® 2.0 Assay was purchased from Promega (Madison, Wis., USA). NCIH929.1 cell line was purchased from ATCC (Manassas, Va., USA). Cell culture flasks and 384-well microplates were acquired from VWR (Radnor, Pa., USA).

Compound | pIC50
N#Cc1ccc(N2CCN(Cc3ccc(Cc4ccc5c6c(cccc46)C(=O)N5C4CCC(=O)NC4=O)cc3F)CC2)c(F)c1 (stereo not shown) [Compound 214, 4-[4-[[4-[[1-(2,6-dioxo-3-piperidyl)-2-oxo-benzo[cd]indol-6-yl]methyl]-2-fluoro-phenyl]methyl]piperazin-1-yl]-3-fluoro-benzonitrile] | > 9.00

Same assay, conditions: 96 h, NCIH929.1 cell viability, 96 hr, top concentration 1 μM, 14 points half log titration; read-out: IC50

Compound | pIC50
N#Cc1ccc2c3c(cccc13)C(=O)N2C1CCC(=O)NC1=O (stereo not shown) [Compound 145, 1-(2,6-dioxopiperidin-3-yl)-2-oxo-1,2-dihydrobenzo[cd]indole-6-carbonitrile] | < 6.00
C#CCNc1ccc2c3c(cccc13)C(=O)N2C1CCC(=O)NC1=O (stereo not shown) [Compound 136, 3-[2-oxo-6-(prop-2-ynylamino)benzo[cd]indol-1-yl]piperidine-2,6-dione] | < 6.00
CC(c1cnn(C2CCN(C(=O)C3(C)CCC3)CC2)c1)c1ccc2c3c(cccc13)C(=O)N2C1CCC(=O)NC1=O (single isomer, unassigned) [Compound 148, 3-(6-(1-(1-(1-(1-methylcyclobutane-1-carbonyl)piperidin-4-yl)-1H-pyrazol-4-yl)ethyl)-2-oxobenzo[cd]indol-1(2H)-yl)piperidine-2,6-dione] | > 9.00
O=C1CCC(N2C(=O)c3cccc4c(Cc5ccc(CN6CCOCC6)cc5)ccc2c34)C(=O)N1 (stereo not shown) [Compound 218, 3-(6-(4-(morpholinomethyl)benzyl)-2-oxobenzo[cd]indol-1(2H)-yl)piperidine-2,6-dione] | > 9.00
CC(C)(C)OC(=O)N1CCC(C)(n2cc(C(=O)c3ccc4c5c(cccc35)C(=O)N4C3CCC(=O)NC3=O)cn2)CC1 (stereo not shown) [Compound 241, 4-{4-[1-(2,6-Dioxo-piperidin-3-yl)-2-oxo-1,2-dihydro-benzo[cd]indole-6-carbonyl]-pyrazol-1-yl}-4-methyl-piperidine-1-carboxylic acid tert-butyl ester] | > 7.00
CC(C)(C)C(=O)N1CCC(C)(n2cc(Cc3ccc4c5c(cccc35)C(=O)N4C3CCC(=O)NC3=O)cn2)CC1 (stereo not shown) [Compound 93] | > 9.00
CC(C)(C)OC(=O)N1CCC(n2cc(C(=O)c3ccc4c5c(cccc35)C(=O)N4C3CCC(=O)NC3=O)cn2)CC1 (stereo not shown) [Compound 143, tert-butyl 4-(4-(1-(2,6-dioxopiperidin-3-yl)-2-oxo-1,2-dihydrobenzo[cd]indole-6-carbonyl)-1H-pyrazol-1-yl)piperidine-1-carboxylate] | > 6.00
O=C1CCC(N2C(=O)c3cccc4c(Cc5ccc(CN6CCC7(CCCCC7)CC6)cc5)ccc2c34)C(=O)N1 (stereo not shown) [Compound 224, 3-(6-(4-((3-azaspiro[5.5]undecan-3-yl)methyl)benzyl)-2-oxobenzo[cd]indol-1(2H)-yl)piperidine-2,6-dione] | > 9.00
O=C1CCC(N2C(=O)c3cccc4c(Cc5ccc(CN6CCN(c7ccc(Cl)cc7F)CC6)cc5)ccc2c34)C(=O)N1 (single isomer, unassigned) [Compound 254, 3-[6-[[4-[[4-(4-chloro-2-fluoro-phenyl)piperazin-1-yl]methyl]phenyl]methyl]-2-oxo-benzo[cd]indol-1-yl]-piperidine-2,6-dione] | > 9.00
CC1(C(=O)N2CCC(C)(n3cc(Cc4ccc5c6c(cccc46)C(=O)N5C4CCC(=O)NC4=O)c(Cl)n3)CC2)CCC1 (stereo not shown) [Compound 133] | > 9.00
O=C1CCC(N2C(=O)c3cccc4c(Cc5cnn(C6CCN(CC7(C(F)(F)F)CCC7)CC6)c5)ccc2c34)C(=O)N1 (stereo not shown) [Compound 57, 3-(2-oxo-6-((1-(1-((1-(trifluoromethyl)cyclobutyl)methyl)piperidin-4-yl)-1H-pyrazol-4-yl)methyl)benzo[cd]indol-1(2H)-yl)piperidine-2,6-dione] | > 9.00
CC1(CN2CCC(C#N)(n3cc(Cc4ccc5c6c(cccc46)C(=O)N5C4CCC(=O)NC4=O)cn3)CC2)CCC1 (stereo not shown) [Compound 193, 4-[4-[[1-(2,6-dioxo-3-piperidyl)-2-oxo-benzo[cd]indol-6-yl]methyl]pyrazol-1-yl]-1-[(1-methylcyclobutyl)methyl]piperidine-4-carbonitrile] | > 9.00
CC1(C(=O)N2CCC(Cc3ccc(Cc4ccc5c6c(cccc46)C(=O)N5C4CCC(=O)NC4=O)cc3)CC2)CCC1 (stereo not shown) [Compound 150, 3-(6-(4-((1-(1-methylcyclobutane-1-carbonyl)piperidin-4-yl)methyl)benzyl)-2-oxobenzo[cd]indol-1(2H)-yl)piperidine-2,6-dione] | > 9.00
O=C1CCC(N2C(=O)c3cccc4c(Cc5ccc(CC6CCN(Cc7ccccc7)CC6)cc5)ccc2c34)C(=O)N1 (stereo not shown) [Compound 152, 3-(6-(4-((1-benzylpiperidin-4-yl)methyl)benzyl)-2-oxobenzo[cd]indol-1(2H)-yl)piperidine-2,6-dione] | > 9.00
CC1(C(=O)N2CCC(c3ccc(Cc4ccc5c6c(cccc46)C(=O)N5C4CCC(=O)NC4=O)cc3)CC2)CCC1 (stereo not shown) [Compound 169, 3-[6-[[4-[1-(1-methylcyclobutanecarbonyl)-4-piperidyl]phenyl]methyl]-2-oxo-benzo[cd]indol-1-yl]piperidine-2,6-dione] | > 9.00
CC1(CN2CCC(C)(n3cc(Cc4ccc5c6c(cccc46)C(=O)N5C4CCC(=O)NC4=O)cn3)CC2)CC1 (stereo not shown) [Compound 100, 3-(6-((1-(4-methyl-1-((1-methylcyclopropyl)methyl)piperidin-4-yl)-1H-pyrazol-4-yl)methyl)-2-oxobenzo[cd]indol-1(2H)-yl)piperidine-2,6-dione] | > 9.00
CC(C)(C)OC1CCC(n2cc(Cc3ccc4c5c(cccc35)C(=O)N4C3CCC(=O)NC3=O)cn2)CC1 (stereo not shown) [Compound 212, 3-[6-[[1-(4-tert-butoxycyclohexyl)pyrazol-4-yl]methyl]-2-oxo-benzo[cd]indol-1-yl]piperidine-2,6-dione] | > 9.00

Same assay, conditions: NCIH929.1 cell viability, 96 hr, top concentration 1 μM, 14 points half log titration; read-out: IC50

Compound | pIC50
N#Cc1ccc(N2CCN(Cc3ccc(Cc4ccc5c6c(cccc46)C(=O)N5C4CCC(=O)NC4=O)cc3)CC2)c(F)c1 (single isomer, unassigned) [Compound 185, 4-(4-(4-((1-(2,6-dioxopiperidin-3-yl)-2-oxo-1,2-dihydrobenzo[cd]indol-6-yl)methyl)benzyl)piperazin-1-yl)-3-fluorobenzonitrile] | > 9.00
CC(C)(C)OC1CCC(n2cc(Cc3ccc4c5c(cccc35)C(=O)N4C3CCC(=O)NC3=O)cn2)CC1 (stereo not shown) [Compound 213, 3-[6-[[1-(4-tert-butoxycyclohexyl)pyrazol-4-yl]methyl]-2-oxo-benzo[cd]indol-1-yl]piperidine-2,6-dione] | > 9.00
O=C1CCC(N2C(=O)c3cccc4c(Cc5ccc(CN6CCN(c7ccccc7F)CC6)cc5)ccc2c34)C(=O)N1 (single isomer, unassigned) [Compound 190, 3-[6-[[4-[[4-(2-fluorophenyl)piperazin-1-yl]methyl]phenyl]methyl]-2-oxo-benzo[cd]indol-1-yl]piperidine-2,6-dione] | > 7.00
O=C1CCC(N2C(=O)c3cccc4c(Cc5cnn(C6CCN(C7CCC78CCC8)CC6)c5)ccc2c34)C(=O)N1 (single isomer, unassigned) [Compound 245, 3-{2-Oxo-6-[1-(1-spiro[3.3]hept-1-yl-piperidin-4-yl)-1H-pyrazol-4-ylmethyl]-2H-benzo[cd]indol-1-yl}-piperidine-2,6-dione] | > 9.00
